From article PMC7673538 (PLoS Biology, 2020)

System: EV-A71
Test: microbe, parasite or virus in culture
Format: cell-based, enterovirus A71
Settings: Enterovirus A, EVA71, HeLa R19, read-out: EC50 EV-A71
`CC(C)c1ccc(CN(C(=O)c2ccco2)c2ccccc2)cc1` [Compound 19h, N-(4-Isopropylbenzyl)-N-phenylfuran-2-carboxamide] showed an EC50 of 1.89 ± 0.21 µM.

Same assay, conditions: Enterovirus A, EVA71, HeLa R19, read-out: EC50 Exp1
For `CC(C)c1ccc(CN(C(=O)c2ccco2)c2ccccc2)cc1` [Compound 19h, N-(4-Isopropylbenzyl)-N-phenylfuran-2-carboxamide], the EC50 was 1.68 µM.

Same assay, conditions: Enterovirus A, EVA71, HeLa R19, read-out: EC50 Exp2
Compound `CC(C)c1ccc(CN(C(=O)c2ccco2)c2ccccc2)cc1` [Compound 19h, N-(4-Isopropylbenzyl)-N-phenylfuran-2-carboxamide] has an EC50 of 2.1 µM.

System: CV-B3
Test: microbe, parasite or virus in culture
Format: cell-based, coxsackievirus B3
Settings: not given
For `CC(C)c1ccc(CN(C(=O)c2ccco2)c2ccccc2)cc1` [Compound 19h, N-(4-Isopropylbenzyl)-N-phenylfuran-2-carboxamide], the “antiviral activity against CV-B3 (in words)” value was “showed antiviral activity” and the “effect of the substitution on antiviral activity against CV-B3 (in words)” value was “decreased the antiviral activity to a larger extent”.

Same assay, conditions: Enterovirus B, CVB3, HeLa
`CC(C)c1ccc(CN(C(=O)c2ccco2)c2ccccc2)cc1` [Compound 19h, N-(4-Isopropylbenzyl)-N-phenylfuran-2-carboxamide] gave an EC50 of 7.62 ± 0.93 µM.

Same assay, conditions: Enterovirus B, CVB3, HeLa R19, read-out: CV-B3 EC50 Average
For `CC(C)c1ccc(CN(C(=O)c2ccco2)c2ccccc2)cc1` [Compound 19h, N-(4-Isopropylbenzyl)-N-phenylfuran-2-carboxamide], the EC50 was 7.03 µM.

Same assay, conditions: Enterovirus B, CVB3, HeLa R19, read-out: CV-B3 Exp 1 EC50
`CC(C)c1ccc(CN(C(=O)c2ccco2)c2ccccc2)cc1` [Compound 19h, N-(4-Isopropylbenzyl)-N-phenylfuran-2-carboxamide] showed an EC50 of 7.95 µM.

Same assay, conditions: Enterovirus B, CVB3, HeLa R19, read-out: CV-B3 Exp2 EC50
`CC(C)c1ccc(CN(C(=O)c2ccco2)c2ccccc2)cc1` [Compound 19h, N-(4-Isopropylbenzyl)-N-phenylfuran-2-carboxamide] gave an EC50 of 6.11 µM.

Same assay, conditions: Enterovirus B, CVB3, HeLa R19, read-out: EC50 HelaR19 Average
For `CC(C)c1ccc(CN(C(=O)c2ccco2)c2ccccc2)cc1` [Compound 19h, N-(4-Isopropylbenzyl)-N-phenylfuran-2-carboxamide], the EC50 was 7.65 µM.

Same assay, conditions: Enterovirus B, CVB3, HeLa R19, read-out: Exp 1 EC50 HelaR19
`CC(C)c1ccc(CN(C(=O)c2ccco2)c2ccccc2)cc1` [Compound 19h, N-(4-Isopropylbenzyl)-N-phenylfuran-2-carboxamide] showed an EC50 of 7.5 µM.

Same assay, conditions: Enterovirus B, CVB3, HeLa R19, read-out: Exp 2 EC50 HelaR19
In the case of `CC(C)c1ccc(CN(C(=O)c2ccco2)c2ccccc2)cc1` [Compound 19h, N-(4-Isopropylbenzyl)-N-phenylfuran-2-carboxamide], the EC50 is reported as 7.8 µM.

System: PV-1
Test: microbe, parasite or virus in culture
Format: cell-based, poliovirus 1
Settings: Enterovirus C, HeLa R19, read-out: EC50 PV-1
In the case of `CC(C)c1ccc(CN(C(=O)c2ccco2)c2ccccc2)cc1` [Compound 19h, N-(4-Isopropylbenzyl)-N-phenylfuran-2-carboxamide], the EC50 is reported as > 30 µM.

System: CV-A24
Test: microbe, parasite or virus in culture
Format: cell-based, coxsackievirus A24
Settings: Enterovirus C, CVA24, HeLa R19, read-out: EC50 CV-A24
For `CC(C)c1ccc(CN(C(=O)c2ccco2)c2ccccc2)cc1` [Compound 19h, N-(4-Isopropylbenzyl)-N-phenylfuran-2-carboxamide], the EC50 was > 30 µM.

System: EV-D68
Test: microbe, parasite or virus in culture
Format: cell-based, enterovirus D68
Settings: Enterovirus D, EVD68, HeLa R19, read-out: EC50 EV-D68
For `CC(C)c1ccc(CN(C(=O)c2ccco2)c2ccccc2)cc1` [Compound 19h, N-(4-Isopropylbenzyl)-N-phenylfuran-2-carboxamide], the EC50 was > 30 µM.

Same assay, conditions: Enterovirus D, EVD68, HeLa R19, read-out: EC50 Exp1
With `CC(C)c1ccc(CN(C(=O)c2ccco2)c2ccccc2)cc1` [Compound 19h, N-(4-Isopropylbenzyl)-N-phenylfuran-2-carboxamide] the EC50 was > 30 µM.

Same assay, conditions: Enterovirus D, EVD68, HeLa R19, read-out: EC50 Exp2
In the case of `CC(C)c1ccc(CN(C(=O)c2ccco2)c2ccccc2)cc1` [Compound 19h, N-(4-Isopropylbenzyl)-N-phenylfuran-2-carboxamide], the EC50 is reported as > 30 µM.

System: HRV-A2
Test: microbe, parasite or virus in culture
Format: cell-based, human rhinovirus
Settings: Human rhinovirus sp., HRVA2, HeLa R19, read-out: EC50 HRV-A2
In the case of `CC(C)c1ccc(CN(C(=O)c2ccco2)c2ccccc2)cc1` [Compound 19h, N-(4-Isopropylbenzyl)-N-phenylfuran-2-carboxamide], the EC50 is reported as > 30 µM.

System: HRV-B14
Test: microbe, parasite or virus in culture
Format: cell-based, human rhinovirus
Settings: Human rhinovirus sp., HRVB14, HeLa R19, read-out: EC50 Exp1
Compound `CC(C)c1ccc(CN(C(=O)c2ccco2)c2ccccc2)cc1` [Compound 19h, N-(4-Isopropylbenzyl)-N-phenylfuran-2-carboxamide] has an EC50 of 5.55 µM.

Same assay, conditions: Human rhinovirus sp., HRVB14, HeLa R19, read-out: EC50 Exp2
For `CC(C)c1ccc(CN(C(=O)c2ccco2)c2ccccc2)cc1` [Compound 19h, N-(4-Isopropylbenzyl)-N-phenylfuran-2-carboxamide], the EC50 was 3.72 µM.

Same assay, conditions: Human rhinovirus sp., HRVB14, HeLa R19, read-out: EC50 HRV-B14
`CC(C)c1ccc(CN(C(=O)c2ccco2)c2ccccc2)cc1` [Compound 19h, N-(4-Isopropylbenzyl)-N-phenylfuran-2-carboxamide] gave an EC50 of 4.64 ± 0.92 µM.

System: CV-B3
Test: microbe, parasite or virus in culture
Format: cell-based, coxsackievirus B3
Settings: not given
Remark: another data set of the same source
In the case of `CC(C)c1ccc(CN(C(=O)c2ccco2)c2ccccc2)cc1` [Compound 19h, N-(4-Isopropylbenzyl)-N-phenylfuran-2-carboxamide], the “antiviral activity against CV-B3 in HAP1 cells (in words)” value is reported as “showed antiviral activity”.

Same assay, conditions: Enterovirus B, CVB3, HAP1, read-out: Exp 1 EC50 Hap1
With `CC(C)c1ccc(CN(C(=O)c2ccco2)c2ccccc2)cc1` [Compound 19h, N-(4-Isopropylbenzyl)-N-phenylfuran-2-carboxamide] the EC50 was 4.28 µM.

Same assay, conditions: Enterovirus B, CVB3, HAP1, read-out: Exp 2 EC50 Hap1
In the case of `CC(C)c1ccc(CN(C(=O)c2ccco2)c2ccccc2)cc1` [Compound 19h, N-(4-Isopropylbenzyl)-N-phenylfuran-2-carboxamide], the EC50 is reported as 3.98 µM.

System: CV-B3
Test: microbe, parasite or virus in culture
Format: cell-based, coxsackievirus B3
Settings: Enterovirus B, CVB3, BGM
With `CC(C)c1ccc(CN(C(=O)c2ccco2)c2ccccc2)cc1` [Compound 19h, N-(4-Isopropylbenzyl)-N-phenylfuran-2-carboxamide] the EC50 was > 100 µM.

System: HeLa R19 cells
Test: not given
Settings: human
Compound `CC(C)c1ccc(CN(C(=O)c2ccco2)c2ccccc2)cc1` [Compound 19h, N-(4-Isopropylbenzyl)-N-phenylfuran-2-carboxamide] has a CC50 of 42.8 ± 1.75 µM.

Same assay, conditions: human, monkey
In the case of `CC(C)c1ccc(CN(C(=O)c2ccco2)c2ccccc2)cc1` [Compound 19h, N-(4-Isopropylbenzyl)-N-phenylfuran-2-carboxamide], the “cytotoxicity (in words)” value is reported as “cytotoxicity in a similar range as the parental compound 1”.

System: not listed separately
Test: in vitro
Settings: human, CC50 Average
For `CC(C)c1ccc(CN(C(=O)c2ccco2)c2ccccc2)cc1` [Compound 19h, N-(4-Isopropylbenzyl)-N-phenylfuran-2-carboxamide], the CC50 was > 30 µM.

Same assay, conditions: human, CC50 HelaR19 Average
Work on `CC(C)c1ccc(CN(C(=O)c2ccco2)c2ccccc2)cc1` [Compound 19h, N-(4-Isopropylbenzyl)-N-phenylfuran-2-carboxamide] yielded a CC50 of 42.7 µM.

Same assay, conditions: human, Exp 1 CC50
With `CC(C)c1ccc(CN(C(=O)c2ccco2)c2ccccc2)cc1` [Compound 19h, N-(4-Isopropylbenzyl)-N-phenylfuran-2-carboxamide] the CC50 was > 30 µM.

Same assay, conditions: human, Exp 1 CC50 HelaR19
For `CC(C)c1ccc(CN(C(=O)c2ccco2)c2ccccc2)cc1` [Compound 19h, N-(4-Isopropylbenzyl)-N-phenylfuran-2-carboxamide], the CC50 was 44.5 µM.

Same assay, conditions: human, Exp2 CC50
In the case of `CC(C)c1ccc(CN(C(=O)c2ccco2)c2ccccc2)cc1` [Compound 19h, N-(4-Isopropylbenzyl)-N-phenylfuran-2-carboxamide], the CC50 is reported as > 30 µM.

Same assay, conditions: human, Exp 2 CC50 HelaR19
In the case of `CC(C)c1ccc(CN(C(=O)c2ccco2)c2ccccc2)cc1` [Compound 19h, N-(4-Isopropylbenzyl)-N-phenylfuran-2-carboxamide], the CC50 is reported as 41 µM.

System: not listed separately
Test: in vitro
Settings: human, CC50 Hap1 Average
With `CC(C)c1ccc(CN(C(=O)c2ccco2)c2ccccc2)cc1` [Compound 19h, N-(4-Isopropylbenzyl)-N-phenylfuran-2-carboxamide] the CC50 was 48.7 µM.

Same assay, conditions: human, Exp 1 CC50 Hap1
With `CC(C)c1ccc(CN(C(=O)c2ccco2)c2ccccc2)cc1` [Compound 19h, N-(4-Isopropylbenzyl)-N-phenylfuran-2-carboxamide] the CC50 was 48.4 µM.

Same assay, conditions: human, Exp 2 CC50 Hap1
Work on `CC(C)c1ccc(CN(C(=O)c2ccco2)c2ccccc2)cc1` [Compound 19h, N-(4-Isopropylbenzyl)-N-phenylfuran-2-carboxamide] yielded a CC50 of 49.1 µM.

System: not listed separately
Test: in vitro
Settings: monkey, CC50
In the case of `CC(C)c1ccc(CN(C(=O)c2ccco2)c2ccccc2)cc1` [Compound 19h, N-(4-Isopropylbenzyl)-N-phenylfuran-2-carboxamide], the CC50 is reported as 46.8 ± 1.48 µM.

Same assay, conditions: monkey, CC50 BGM Average
Work on `CC(C)c1ccc(CN(C(=O)c2ccco2)c2ccccc2)cc1` [Compound 19h, N-(4-Isopropylbenzyl)-N-phenylfuran-2-carboxamide] yielded a CC50 of 46.8 µM.

Same assay, conditions: monkey, Exp 1 CC50 BGM
`CC(C)c1ccc(CN(C(=O)c2ccco2)c2ccccc2)cc1` [Compound 19h, N-(4-Isopropylbenzyl)-N-phenylfuran-2-carboxamide] gave a CC50 of 45.4 µM.

Same assay, conditions: monkey, Exp 2 CC50 BGM
For `CC(C)c1ccc(CN(C(=O)c2ccco2)c2ccccc2)cc1` [Compound 19h, N-(4-Isopropylbenzyl)-N-phenylfuran-2-carboxamide], the CC50 was 48.3 µM.
